Measured values taken from US10689344B2, “Biphenylamide derivative Hsp90 inhibitors” (University of Kansas, priority 2013, dated 2020).

Tests used:
[1] = tested on: MCF-7 (estrogen receptor positive breast cancer cells); assay: Anti-proliferation assay (MTS/PMS, 72 h), MCF-7; format: cell-based; details: Homo sapiens
Description: (§1) Cells were maintained in a 1:1 mixture of Advanced DMEM/F12 (Gibco) supplemented with non-essential amino acids, L-glutamine (2 mM), streptomycin (500 μg/mL), penicillin (100 units/mL), and 10% FBS. Cells were grown to confluence in a humidified atmosphere (37° C., 5% CO2), seeded (2000/well, 100 μL) in 96-well plates, and allowed to attach overnight. Compound at varying concentrations in DMSO (1% DMSO final concentration) was added, and cells were returned to the incubator for 72 h. At 72 h, the number of viable cells was determined using an MTS/PMS cell proliferation kit (Promega) per the manufacturer's instructions. Cells incubated in 1% DMSO were used at 100% proliferation, and values were adjusted accordingly. IC50 values were calculated from separate experiments performed in triplicate using GraphPad Prism.
(§2) Anti-proliferative studies with the compounds described herein were performed against the SKBr3 (estrogen receptor negative, HER2 over-expressing breast cancer cells) and MCF-7 (estrogen receptor positive breast cancer cells) breast cancer cell lines. […] In some embodiments, in contrast to the novobiocin derivatives, which usually manifest better anti-proliferative activities against the SKBr3 cell line, the biphenyl derivatives described herein were more efficacious against the MCF-7 cell line. In general, all substitutions on the phenyl ring were determined to be beneficial, consistent with the existence of a hydrophobic pocket in this region of the Hsp90 C-terminal binding site.

[2] = tested on: SKBr3 (estrogen receptor negative, HER2 over-expressing breast cancer cells); assay: Anti-proliferation assay (MTS/PMS, 72 h), SKBr3; format: cell-based; details: Homo sapiens
Description: as §1, §2

[3] = MCF7, Table 3, substituted para-para biphenyl core
[4] = SK-BR-3, Table 3, substituted para-para biphenyl core
[5] = MCF7, Table 1, ortho, meta and para biphenyl cores
[6] = SK-BR-3, Table 1, ortho, meta and para biphenyl cores
[7] = MCF7, Table 2, para-meta biphenyl core with substituted benzylamide
[8] = SK-BR-3, Table 2, para-meta biphenyl core with substituted benzylamide
[9] = MCF7, Table 8, para-para biphenyl core with substituted biphenylamide group
[10] = SK-BR-3, Table 8, para-para biphenyl core with substituted biphenylamide group
[11] = MCF7, Table 6, para-para biphenyl core with substituted benzylamide
[12] = SK-BR-3, Table 6, para-para biphenyl core with substituted benzylamide
[13] = MCF7, Table 4, para-para heteroatom substituted biphenyl core
[14] = SK-BR-3, Table 4, para-para heteroatom substituted biphenyl core

COc1cccc(-c2cc(C(=O)Nc3ccc(-c4ccc(OC5CCN(C)CC5)cc4N)cc3)ccc2OC)c1 [Compound 38b, N-(2′-amino-4′-((1-methylpiperidin-4-yl)oxy)-[1,1′-biphenyl]-4-yl)-3′,6-dimethoxy-[1,1′-biphenyl]-3-carboxamide]
IC50 [1, 3]: 1760 ± 370 nM
IC50 [2, 4]: 2130 ± 60 nM

COc1cccc(-c2cc(C(=O)Nc3ccc(-c4ccc(OC5CCN(C)CC5)c(OC)c4)cc3)ccc2OC)c1 [Compound 29e, 3′,6-dimethoxy-N-(3′-methoxy-4′-((1-methylpiperidin-4-yl)oxy)-[1,1′-biphenyl]-4-yl)-[1,1′-biphenyl]-3-carboxamide]
IC50 [1, 3]: 1320 ± 80 nM
IC50 [2, 4]: 680 ± 130 nM

CN1CCC(Oc2ccc(-c3cccc(NC(=O)C45CC6CC(CC(C6)C4)C5)c3)cc2)CC1 [Compound 61a, N-(4′-((1-methylpiperidin-4-yl)oxy)-[1,1′-biphenyl]-3-yl)adamantane-1-carboxamide]
IC50 [1, 5]: 770 ± 80 nM
IC50 [2, 6]: 1250 ± 40 nM

Cc1ccc(C(=O)Nc2cccc(-c3ccc(OC4CCN(C)CC4)cc3)c2)cc1 [Compound 6c, 4-methyl-N-(4′-((1-methylpiperidin-4-yl)oxy)-[1,1′-biphenyl]-3-yl)benzamide]
IC50 [1, 7]: 3920 ± 130 nM
IC50 [2, 8]: 5270 nM

COc1cccc(-c2cc(C(=O)Nc3ccc(-c4ccc(OC5CCN(C)CC5)cc4)cc3Cl)ccc2OC)c1 [Compound 29l, N-(3-chloro-4′-((1-methylpiperidin-4-yl)oxy)-[1,1′-biphenyl]-4-yl)-3′,6-dimethoxy-[1,1′-biphenyl]-3-carboxamide]
IC50 [1, 3]: 1800 ± 190 nM
IC50 [2, 4]: 4750 nM

CN1CCC(Oc2ccc(-c3cccc(NC(=O)c4cccc5ccccc45)c3)cc2)CC1 [Compound 6p, N-(4′-((1-methylpiperidin-4-yl)oxy)-[1,1′-biphenyl]-3-yl)-1-naphthamide]
IC50 [1, 7]: 1100 ± 170 nM
IC50 [2, 8]: 1640 ± 130 nM

COc1ccc(C(=O)Nc2ccc(-c3ccc(OC4CCN(C)CC4)cc3)cc2)cc1-c1cccc(O)c1 [Compound 50a, 3′-hydroxy-6-methoxy-N-(4′-((1-methylpiperidin-4-yl)oxy)-[1,1′-biphenyl]-4-yl)-[1,1′-biphenyl]-3-carboxamide]
IC50 [1, 9]: 1080 ± 340 nM
IC50 [2, 10]: 1560 ± 350 nM

CN1CCC(Oc2ccc(-c3cccc(NC(=O)c4ccc(C(C)(C)C)cc4)c3)cc2)CC1 [Compound 6e, 4-(tert-butyl)-N-(4′-((1-methylpiperidin-4-yl)oxy)-[1,1′-biphenyl]-3-yl)benzamide]
IC50 [1, 5]: 3450 ± 20 nM
IC50 [1, 7]: 3450 ± 20 nM
IC50 [2, 6]: 1510 ± 310 nM
IC50 [2, 8]: 1510 ± 310 nM

CN1CCC(Oc2ccc(-c3ccc(NC(=O)c4ccc(Cl)cc4Cl)cc3)cc2)CC1 [Compound 41p, 2,4-dichloro-N-(4′-((1-methylpiperidin-4-yl)oxy)-[1,1′-biphenyl]-4-yl)benzamide]
IC50 [1, 11]: 1370 ± 330 nM
IC50 [2, 12]: 800 ± 220 nM

COc1ccc(C(=O)Nc2ccc(Nc3ccc(OC4CCN(C)CC4)cc3)cc2)cc1 [drawing 159]
IC50 ([1]; MCF7, Table 11, heteroatom linked biphenyl core): 2830 ± 1870 nM
IC50 ([2]; SK-BR-3, Table 11, heteroatom linked biphenyl core): 18200 ± 2190 nM

COc1cccc(-c2cc(C(=O)Nc3ccc(-c4ccc(OC5CCN(C)CC5)cc4)cc3C)ccc2OC)c1 [Compound 29d, 3′,6-dimethoxy-N-(3-methyl-4′-((1-methylpiperidin-4-yl)oxy)-[1,1′-biphenyl]-4-yl)-[1,1′-biphenyl]-3-carboxamide]
IC50 [1, 3]: 1430 ± 350 nM
IC50 [2, 4]: 2470 ± 390 nM

COc1ccc(C(=O)Nc2ccc(-c3ccc(OC4CCN(C)CC4)cc3)cc2)cc1-c1ccc(Cl)cc1 [Compound 49g, 4′-chloro-6-methoxy-N-(4′-((1-methylpiperidin-4-yl)oxy)-[1,1′-biphenyl]-4-yl)-[1,1′-biphenyl]-3-carboxamide]
IC50 [1, 9]: 820 ± 130 nM
IC50 [2, 10]: 1060 ± 50 nM

COc1cccc(-c2cc(C(=O)Nc3ccc(-c4ccc(OC5CCN(C)CC5)nc4)cc3)ccc2OC)c1 [Compound 19a, 3′,6-dimethoxy-N-(4-(6-((1-methylpiperidin-4-yl)oxy)pyridin-3-yl)phenyl)-[1,1′-biphenyl]-3-carboxamide]
IC50 [1, 13]: 1560 ± 190 nM
IC50 [2, 14]: 1670 ± 90 nM

COc1ccc(C(=O)Nc2ccc(-c3ccc(OC4CCN(C)CC4)cc3)cc2)cc1-c1cccc(N)c1 [Compound 50c, 3′-amino-6-methoxy-N-(4′-((1-methylpiperidin-4-yl)oxy)-[1,1′-biphenyl]-4-yl)-[1,1′-biphenyl]-3-carboxamide]
IC50 [1, 9]: 1670 ± 680 nM
IC50 [2, 10]: 1520 ± 550 nM

COc1cccc(-c2cc(C(=O)Nc3ccc(-c4ccc(OC5CCN(C)CC5)cc4)nc3)ccc2OC)c1 [Compound 19c, 3′,6-dimethoxy-N-(6-(4-((1-methylpiperidin-4-yl)oxy)phenyl)pyridin-3-yl)-[1,1′-biphenyl]-3-carboxamide]
IC50 [1, 13]: 1020 ± 10 nM
IC50 [2, 14]: 1210 ± 130 nM

CN1CCC(Oc2ccc(-c3ccc(NC(=O)c4ccc(Cl)c(Cl)c4)cc3)cc2)CC1 [Compound 41n, 3,4-dichloro-N-(4′-((1-methylpiperidin-4-yl)oxy)-[1,1′-biphenyl]-4-yl)benzamide]
IC50 [1, 11]: 1600 ± 160 nM
IC50 [2, 12]: 1200 ± 80 nM

CN1CCC(Oc2ccc(-c3cccc(NC(=O)c4ccc5ccccc5c4)c3)cc2)CC1 [Compound 6q]
IC50 [1, 7]: 1660 ± 270 nM
IC50 [2, 8]: 2090 ± 340 nM

COc1cccc(C(=O)Nc2ccc(-c3ccc(OC4CCN(C)CC4)cc3)cc2)c1 [Compound 41i, 3-methoxy-N-(4′-((1-methylpiperidin-4-yl)oxy)-[1,1′-biphenyl]-4-yl)benzamide]
IC50 [1, 11]: 5310 ± 700 nM
IC50 [2, 12]: 2870 ± 510 nM

CN1CCC(Oc2ccc(-c3ccc(NC(=O)c4ccc(Br)cc4)cc3)cc2)CC1 [Compound 41c, 4-bromo-N-(4′-((1-methylpiperidin-4-yl)oxy)-[1,1′-biphenyl]-4-yl)benzamide]
IC50 [1, 11]: 520 ± 150 nM
IC50 [2, 12]: 520 ± 210 nM

Cc1ccc(C(=O)Nc2ccc(-c3ccc(OC4CCN(C)CC4)cc3)cc2)cc1-c1cccc(Cl)c1 [Compound 49k]
IC50 [1, 9]: 1600 ± 110 nM
IC50 [2, 10]: 3160 ± 370 nM

COc1ccc(C(=O)Nc2ccc(-c3ccc(OC4CCN(C)CC4)cc3)cc2)cc1-c1ccc(O)cc1 [Compound 50b, 4′-hydroxy-6-methoxy-N-(4′-((1-methylpiperidin-4-yl)oxy)-[1,1′-biphenyl]-4-yl)-[1,1′-biphenyl]-3-carboxamide]
IC50 [1, 9]: 500 ± 10 nM
IC50 [2, 10]: 130 ± 20 nM

COc1cccc(-c2cc(C(=O)Nc3ccc(-c4ccc(OCCCN(C)C)cc4)cc3)ccc2OC)c1 [Compound 56c, N-(4′-(3-(dimethylamino)propoxy)-[1,1′-biphenyl]-4-yl)-3′,6-dimethoxy-[1,1′-biphenyl]-3-carboxamide]
IC50 ([1]; MCF7, Table 7, para-para biphenyl core with modified ether groups): 870 ± 40 nM
IC50 ([2]; SK-BR-3, Table 7, para-para biphenyl core with modified ether groups): 1020 ± 50 nM

COc1cccc(-c2cc(C(=O)Nc3ccc(-c4ccc(OC5CCN(C)CC5)cc4)c(C)c3)ccc2OC)c1 [Compound 29c, 3′,6-dimethoxy-N-(2-methyl-4′-((1-methylpiperidin-4-yl)oxy)-[1,1′-biphenyl]-4-yl)-[1,1′-biphenyl]-3-carboxamide]
IC50 [1, 3]: 1570 ± 560 nM
IC50 [2, 4]: 970 ± 10 nM

CN1CCC(Oc2ccc(-c3cccc(NC(=O)c4ccccc4Cl)c3)cc2)CC1 [Compound 6k, 2-Chloro-N-(4′-((1-methylpiperidin-4-yl)oxy)-[1,1′-biphenyl]-3-yl)benzamide]
IC50 [1, 7]: 5170 ± 490 nM
IC50 [2, 8]: 7870 ± 480 nM

CN1CCC(Oc2ccc(-c3ccc(NC(=O)c4cccc(Cl)c4)cc3)cc2)CC1 [Compound 41h, 3-chloro-N-(4′-((1-methylpiperidin-4-yl)oxy)-[1,1′-biphenyl]-4-yl)benzamide]
IC50 [1, 11]: 2830 ± 690 nM
IC50 [2, 12]: 1940 ± 370 nM

CN1CCC(Oc2cccc(-c3cccc(NC(=O)C45CC6CC(CC(C6)C4)C5)c3)c2)CC1 [Compound 61b, N-(3′-((1-methylpiperidin-4-yl)oxy)-[1,1′-biphenyl]-3-yl)adamantane-1-carboxamide]
IC50 [1, 5]: 2070 ± 90 nM
IC50 [2, 6]: 2600 ± 710 nM

COc1cccc(-c2cc(C(=O)Nc3ccc(-c4ccc(OC5CCN(C)CC5)cc4)cc3N)ccc2OC)c1 [Compound 38d, N-(3-amino-4′-((1-methylpiperidin-4-yl)oxy)-[1,1′-biphenyl]-4-yl)-3′,6-dimethoxy-[1,1′-biphenyl]-3-carboxamide]
IC50 [1, 3]: 2250 ± 490 nM
IC50 [2, 4]: 3210 ± 450 nM

COc1cccc(-c2cc(C(=O)Nc3ccc(-c4ccc(OC5CCN(C)CC5)c(Cl)c4)cc3)ccc2OC)c1 [Compound 29i, N-(3′-chloro-4′-((1-methylpiperidin-4-yl)oxy)-[1,1′-biphenyl]-4-yl)-3′,6-dimethoxy-[1,1′-biphenyl]-3-carboxamide]
IC50 [1, 3]: 1480 ± 120 nM
IC50 [2, 4]: 1840 ± 570 nM

COc1cccc(-c2cc(C(=O)Nc3ccc(-c4ccc(OC5CCN(C)CC5)c(C#N)c4)cc3)ccc2OC)c1 [Compound 29m, N-(3′-cyano-4′-((1-methylpiperidin-4-yl)oxy)-[1,1′-biphenyl]-4-yl)-3′,6-dimethoxy-[1,1′-biphenyl]-3-carboxamide]
IC50 [1, 3]: 3700 ± 610 nM
IC50 [2, 4]: 2770 ± 1160 nM
